Assay results published in patent US12077534B2, “Aza-heterobicyclic inhibitors of MAT2A and methods of use for treating cancer” (Les Laboratoires Servier SAS, priority 2018, dated 2024).

Tests used:
MAT2A homodimer = target: T1, MAT2A homodimer (Homo sapiens, UniProt P31153); assay: MAT2A biochemical assay (phosphate release, PiColorLock Gold); conditions: recombinant MAT2A homodimer, 60 min pre-incubation, 25° C.; read-out: Enzyme Inhibition
T1 construct: inferred from Ni sepharose purification and imidazole elution; made in house; host or cells: SF9 insect cells, recombinant baculovirus (Bac to Bac, pFASTBAC1)
Method in brief: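 Baculovirus/Sf9-expressed, Ni-purified MAT2A homodimer (4 µg/mL in pH 8.0 Tris/KCl/MgCl2 buffer) preincubated 60 min at 25 °C with compound (2% DMSO final). Substrate mix of 500 µM ATP and 400 µM L-methionine added; 60 min at 25 °C; released phosphate quantified colorimetrically against a phosphate standard curve.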

[1] = tested on: MAT2A activity (SAM) in HCT116 cells with deleted MTAP gene; assay: Cellular assay of target engagement (SAM) by LC-MS/MS; assay type: cell-based; conditions: Homo sapiens, HCT-116; HCT116 MTAP −/−, 72 hrs; read-out: Cell 72 h SAM Inhibition (MTAP −/−)
Method in brief: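 HCT116 MTAP-deleted cells treated with 10-point 3-fold DMSO serial dilutions of compound for 72 hrs at 37° C. Cells lysed in cold 80% methanol/acetic acid extraction buffer with d3-SAM internal standard; SAM quantified by LC-MS/MS (MRM m/z 399.2→250.1).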

HCT116 MTAP−/− = assay: Inhibition of cellular proliferation (Cell Titer Glo), HCT116 MTAP-/-; assay type: cell-based; conditions: Homo sapiens, HCT-116, 96 h, 4 days, read-out: 4 Day Relative Growth Inhibition (MTAP −/−)
Method in brief: (§1)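 Isogenic HCT116 MTAP+/+ and MTAP−/− cells treated 24 h after plating with 10-point 3-fold dilutions, then grown 4 days at 37 °C/5% CO2. ATP content read by Cell Titer Glo luminescence, blank-subtracted and normalized to 0.2% DMSO control, plotted as percent proliferation change versus log molar concentration.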

HCT116 MTAP+/+ = assay: Inhibition of cellular proliferation (Cell Titer Glo), HCT116 MTAP+/+; assay type: cell-based; conditions: Homo sapiens, HCT-116, 96 h, 4 days, read-out: 4 Day Relative Growth Inhibition (MTAP +/+)
Method in brief: as §1

T1 sequence (P31153 whole entry): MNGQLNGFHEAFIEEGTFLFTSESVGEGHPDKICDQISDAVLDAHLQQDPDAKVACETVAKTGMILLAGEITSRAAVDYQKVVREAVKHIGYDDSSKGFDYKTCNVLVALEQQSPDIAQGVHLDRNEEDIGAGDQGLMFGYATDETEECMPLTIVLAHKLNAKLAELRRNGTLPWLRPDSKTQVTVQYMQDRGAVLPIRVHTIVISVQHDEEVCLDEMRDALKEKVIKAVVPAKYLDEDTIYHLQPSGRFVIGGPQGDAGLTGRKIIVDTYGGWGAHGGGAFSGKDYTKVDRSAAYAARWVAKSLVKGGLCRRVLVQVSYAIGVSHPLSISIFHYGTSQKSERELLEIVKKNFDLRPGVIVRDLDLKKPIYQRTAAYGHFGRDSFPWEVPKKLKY

Row | SMILES | IC50 (MAT2A homodimer) [nM] | IC50 [1] [nM] | IC50 (HCT116 MTAP−/−) [nM] | IC50 (HCT116 MTAP+/+) [nM]
1 | O=c1c(-c2ccc(OC(F)F)cc2)c2nc(OCC(F)F)ccc2nn1-c1ccc2nnccc2c1 [Example 176] | < 100 | < 100 | 100 to 1000 | 100 to 1000
2 | O=c1c(-c2ccc(OC(F)F)cc2)c2nc(OCC(F)F)ccc2nn1-c1ccc2c(c1)OCCO2 [Example 177] | < 100 | < 100 | < 100 | 100 to 1000
3 | O=c1c(-c2ccc(OC(F)F)cc2)c2nc(OCC(F)F)ccc2nn1-c1ccc2c(c1)CCO2 [Example 178] | < 100 | < 100 | < 100 | 100 to 1000
4 | O=c1c(-c2ccc(OC(F)F)cc2)c2nc(OCC(F)F)ccc2nn1-c1ccc2ncncc2c1 [Example 179] | < 100 | < 100 | 100 to 1000 | ≥ 1000
5 | CN1CCOc2ccc(-n3nc4ccc(OCC(F)F)nc4c(-c4ccc(OC(F)F)cc4)c3=O)cc21 [Example 180] | < 100 | < 100 | < 100 | ≥ 1000
6 | Cn1nc2ccc(-n3nc4ccc(OCC(F)F)nc4c(-c4ccc(OC(F)F)cc4)c3=O)cc2n1 [Example 182] | < 100 | < 100 | < 100 | 100 to 1000
7 | O=c1c(-c2ccc(OC(F)F)cc2)c2nc(OCC(F)F)ccc2nn1-c1ccc2ncccc2c1 [Example 183] | < 100 | < 100 | < 100 | 100 to 1000
8 | O=c1c(-c2ccc(OC(F)F)cc2)c2nc(OCC(F)F)ccc2nn1-c1ccc2nncn2c1 [Example 184] | < 100 | < 100 | 100 to 1000 | ≥ 1000
9 | COC1CC=C(n2nc3ccc(OCC(F)F)nc3c(-c3ccc(OC(F)F)cc3)c2=O)CC1 (stereo not drawn) [Example 187] | < 100 | 100 to 1000 | ≥ 1000 | ≥ 1000
10 | O=c1c(-c2ccc(OC(F)F)cc2)c2nc(OCC(F)F)ccc2nn1-c1ccncc1 [Example 188] | < 100 | 100 to 1000 | 100 to 1000 | ≥ 1000
11 | CNC(=O)c1ccc(-n2nc3ccc(OCC(F)F)nc3c(-c3ccc(OC(F)F)cc3)c2=O)cc1 [Example 189] | < 100 | 100 to 1000 | 100 to 1000 | ≥ 1000
12 | O=c1c(-c2ccc(OC(F)F)cc2)c2nc(OCC(F)F)ccc2nn1-c1ccc(F)cc1 [Example 191] | 100 to 1000 | 100 to 1000 | ≥ 1000 | ≥ 1000
13 | O=c1c(-c2ccc(OC(F)F)cc2)c2nc(OCC(F)F)ccc2nn1-c1ccc2nccnc2c1 [Example 192] | < 100 | < 100 | 100 to 1000 | 100 to 1000
14 | O=c1c(-c2ccc(OC(F)F)cc2)c2nc(OCC(F)F)ccc2nn1-c1cn[nH]c1 [Example 193] | < 100 | 100 to 1000 | 100 to 1000 | ≥ 1000
15 | Cn1cc2cc(-n3nc4cc(F)c(OCC(F)F)nc4c(-c4ccc(OC(F)F)cc4)c3=O)ccc2n1 [Example 194, 6-(2,2-difluoroethoxy)-4-(4-(difluoromethoxy)phenyl)-7-fluoro-2-(2-methyl-2H-indazol-5-yl)pyrido[3,2-c]pyridazin-3(2H)-one] | < 100 | 100 to 1000 | < 100 | ≥ 1000
16 | CCOc1nc2c(-c3ccc(OC(F)F)cc3)c(=O)n(-c3ccc4nn(C)cc4c3)nc2cc1F [Example 195] | < 100 | < 100 | ≥ 1000 | ≥ 1000
17 | CCNc1nc2c(-c3ccc(OC(F)F)cc3)c(=O)n(-c3ccc4nn(C)cc4c3)nc2cc1F [Example 196] | < 100 | < 100 | < 100 | ≥ 1000
18 | Cn1cc2cc(-n3nc4cc(F)c(NCC(F)(F)F)nc4c(-c4ccc(OC(F)F)cc4)c3=O)ccc2n1 [Example 197] | < 100 | < 100 | < 100 | ≥ 1000
